# In patent US11331364B2, “Use for JNK inhibitor molecules for treatment of various diseases” (Xigen Inflammation Ltd., priority 2014, dated 2022):
# Square brackets hold non-standard residues; d marks the D form. Ends that are not written are not given here. Peptide text beside a SMILES is read from it.
# How the values were obtained:
# [1] = test system: Imiquimod-induced psoriasis in mice; test: Imiquimod-induced psoriasis, ear histopathology; format: in vivo, mouse; conditions: 10 mg/kg PO daily
# Procedure: Female BALB/cAnNCrl mice (Charles River, age 8 to 10 weeks at study start) have been assigned to the following groups (treatment schedule):
# In this experiment, two positive controls have been utilized. Firstly, Prednisolone at 10 mg/kg (vehicle: 1% Hydroxyethylcellulose, 0.25% Polysorbate 80, and 0.05% Antifoam in purified water) has been dosed daily and orally (group “Prednisolone”). Secondly, Dexamethasone has been administered at 0.5 mg/kg (vehicle: sterile 0.9% NaCl) on days 1, 4 and 7 via intravenous route.
# On day 8, animals have been sacrificed and the tissue (ear) has been fixed in 10% neutral buffered formalin. For histopathology hematoxylin-and-eosin-stained sections (cross cut) have been prepared and microscopic evaluation on the collected tissues from all animals has been performed. Methods and end-points for histopathology were similarly described in the van der Fits (2009) paper in that inflammation, epidermal hyperplasia, epidermal hyperkeratosis (rather than parakeratosis) were observed and recorded for severity grade, whereby the respective methodology from Van der Fits et al. (The Journal of Immunology 2009, 182, P. 5836-5845) is hereby incorporated by reference. Histopathology grading scores were excluded for either skin or ear in animals with secondary inflammatory processes (full thickness epidermal ulcers). Scores were averaged by group and standard deviation and statistical significance were calculated. […] Formalin-fixed, paraffin embedded skin from the dorsal surface of the mouse (BALB/c) was stained with hematoxylin and eosin (H&E) stain and assessed microscopically. An important difference from the above reference and to describe in more detail the observations of the present study: Hyperkeratosis can be defined specifically as orthokeratotic (no retained nuclei) or parakeratotic (retained nuclei). Either can occur normally in various anatomical locations and depending on species; however, both conditions are well defined in particular disease states. The van der Fits paper describes their Imiquimod (IMQ)-induced psoriasis model as causing parakeratotic hyperkeratosis similar to what is seen in the human condition, and that was a defined end-point for this study. However, the Danilenko et al. (Veterinary Pathology 2008 45:563) has shown that many rodent psoriasis models have orthokeratotic hyperkeratosis. […] The more general term ‘hyperkeratosis’ was used for grading end-points and describe in the text what type was seen (primarily orthokeratotic).
# Microscopic Histopathology end-points were graded as such: […]
# [2] = Stability (half-life) in human serum, UPLC-MS; conditions: human serum (10 and 50% in PBS; FIG. 5: 50%), 0.1 mM peptide
# Procedure: The experiment was performed as described by Tugyi et al. (Proc Natl Acad Sci USA, 2005, 413-418). The remaining intact peptide was quantified by UPLC-MS.
# [3] = test system: Hela cells; test: Internalization of transporter constructs, 24 hours, fluorescence of cell extracts; format: cell-based; conditions: FIG. 6; Y in position 2
# Procedure: The transporter sequences analyzed correspond to SEQ ID NOs: 52-94 plus SEQ ID NOs: 45, 47, 46, 43 and 99 (FIG. 6A) and SEQ ID NOs: 100-147 (FIG. 6B). […] Hela cells were incubated 24 hours in 96 well plate with […] of the respective transporters. The cells were then washed twice with an acidic buffer (0.2M Glycin, 0.15M NaCl, pH 3.0) and twice with PBS. Cells were broken by the addition of RIPA lysis buffer. The relative amount of internalized peptide was then determined by reading the fluorescence intensity (Fusion Alpha plate reader; PerkinElmer) of each extract followed by background subtraction.
# Hela cells were incubated 24 hours in 96 well plate with […] of the r3-L-TAT-derived transporters. The cells were then washed twice with an acidic buffer (0.2M Glycin, 0.15M NaCl, pH 3.0) and twice with PBS. Cells were broken by the addition of RIPA lysis buffer. The relative amount of internalized peptide was then determined by reading the fluorescence intensity (Fusion Alpha plate reader; PerkinElmer) of each extract followed by background subtraction
compound,measurement,setting,value
"C[C@]12C=CC(=O)C=C1CC[C@@H]1[C@@H]2[C@@H](O)C[C@@]2(C)[C@H]1CC[C@]2(O)C(=O)CO [Prednisolone, reference compound]",epidermal hyperkeratosis of the ear (average grades),[1],minimally decreased average grades
same,inflammation of the ear (average grade) vs vehicle-IMQ,[1],decreased inflammation of the ear
same,inflammation of the ear (average grade) vs vehicle-IMQ,[1]; listed as prednisolone,significant differences from the vehicle control group
"CC(C)C[C@H](NC(=O)[C@H](CC(N)=O)NC(=O)[C@H](CC(C)C)NC(=O)[C@@H](NC(=O)[C@@H](NC(=O)[C@@H]1CCCN1C(=O)[C@H](CCCNC(=N)N)NC(=O)[C@H](CCCCN)NC(=O)[C@@H]1CCCN1C(=O)[C@H](CCCNC(=N)N)NC(=O)[C@@H]1CCCN1C(=O)[C@@H]1CCCN1C(=O)[C@H](CCCNC(=N)N)NC(=O)[C@H](CCCNC(=N)N)NC(=O)[C@H](CCCNC(=N)N)NC(=O)[C@H](CCC(N)=O)NC(=O)[C@H](CCCNC(=N)N)NC(=O)[C@H](CCCNC(=N)N)NC(=O)[C@H](CCCCN)NC(=O)[C@H](CCCCN)NC(=O)[C@H](CCCNC(=N)N)NC(=O)CN)[C@@H](C)O)[C@@H](C)O)C(=O)N[C@@H](Cc1ccccc1)C(=O)N1CCC[C@H]1C(=O)N[C@@H](CCC(N)=O)C(=O)N[C@H](C(=O)N1CCC[C@H]1C(=O)N[C@@H](CCCNC(=N)N)C(=O)N[C@@H](CO)C(=O)N[C@@H](CCC(N)=O)C(=O)N[C@@H](CC(=O)O)C(N)=O)C(C)C [SEQ ID NO: 196, reference compound] (H-GRKKRRQRRRPPRPKRPTTLNLFPQVPRSQD-NH2)",time until totally degraded into amino acids residues,[2],≤ 6 h
rYKRrQRRr ([dR]YKR[dR]QRR[dR]) [SEQ ID NO: 142],transporter activity,[3],highest transporter activity
